Read-outs that look alike come from different tables or passages of the source.
Experiments:
[1] = tested on: rats; assay: FCA (Freunds Complete Adjuvant) model of inflammatory hypersensitivity to pain (weight bearing); assay type: in vivo, rat
Protocol: • Naïve weight bearing readings were taken. The hypersensitivity to pain was measured using the Rat incapacitance tester (Linton instruments). This instrument is serviced once a year and should be regularly calibrated • All rats then received an intraplantar injection of 100 ul of FCA (Freund's complete adjuvant) into the left hind paw. The FCA was sonicated for 15 minutes prior to use. • Approximately 23 hrs after administration of the FCA, pre-dose weight bearing readings were taken. All animals were then ranked and randomised for dosing according to their FCA window (predose difference in grams−naïve difference in grams). […] Celebrex 10 mg/kg p.o. (positive control) as appropriate according to ranking and randomisation. • Animals were assessed in the weight bearing apparatus 1 hour post dose. • The study was blind and randomised by FCA window using the Latin square method. • % reversals were calculated by using the naïve, pre-dose and post dose values as follows: % Reversal=[(Pre-dose−Post-dose)/(Pre-dose−Naïve)]×100 • Graphs and ED50 were calculated where appropriate using Prism4. • Statistical analysis was carried out using ANOVA followed by calculating the least square means using the statistical package Statistica 6.1 • From the dose response curves the ED20 was determined for the combination study • Naïve weight bearing readings were taken. The hypersensitivity to pain was measured using the Rat incapacitance tester (Linton instruments). This instrument is serviced once a year and should be regularly calibrated • All rats then received an intraplantar injection of 100 ul of FCA (Freund's complete adjuvant) into the left hind paw. The FCA was sonicated for 15 minutes prior to use. • Approximately 23 hrs after administration of the FCA, pre-dose weight bearing readings were taken. All animals were then ranked and randomised for dosing according to their FCA window (predose difference in grams−naïve difference in grams). […] See table 5 for details of the groups • Animals were assessed in the weight bearing apparatus 1 hour post dose. • The study was blind and randomised by FCA window using the Latin square method. • % reversals were calculated by using the naïve, pre-dose and post dose values as follows: % Reversal=[(Pre-dose−Post-dose)/(Pre-dose−Naïve)]×100 • Statistical analysis was carried out using ANOVA followed by calculating the least square means using the statistical package Statistica 6.1 • ED50 and ED20 values and graphs were calculated using prism5 • Naïve weight bearing readings were taken. The hypersensitivity to pain was measured using the Rat incapacitance tester (Linton instruments). This instrument is serviced once a year and should be regularly calibrated • All rats then received an intraplantar injection of 100 ul of FCA (Freund's complete adjuvant) into the left hind paw. The FCA was sonicated for 15 minutes prior to use. • Approximately 23 hrs after administration of the FCA, pre-dose weight bearing readings were taken. All animals were then ranked and randomised for dosing according to their FCA window (predose difference in grams—naïve difference in grams). Rats with FCA window less than 30 g were excluded from the study. • Animals were then dosed with the following in a fixed dose ratio of 1.25:1 according to ranking and randomisation. (Table 6) […] Graphs and ED50 were calculated where appropriate using Prism5 • Statistical analysis was carried out using ANOVA followed by calculating the least square means using the statistical package Statistica 6.1

[2] = Blood and brain concentrations in satellite animals of the MEST study; assay type: in vivo, rat; conditions: satellite rats; for concentration at 15 min / concentration at 30 min: rat, sc; for change of blood or brain concentration of the sodium channel blocker in the presence of ENK6: ENK6 30 mg/kg i.p.
Protocol: Satellite animals (n=3/group) received the same drugs or combinations of drugs as the test groups, and were culled at the appropriate time after dosing. Blood and brain samples were taken for analysis of the drug concentrations in these compartments.
(§1) All doses were calculated as base. ENa9 and ENa13 were dosed via the subcutaneous (s.c.) route at 1 ml/kg in a 2% v/v DMSO/saline vehicle 30 minutes prior to test. ENa7 and ENa14 were dosed orally (p.o.) in a 1% w/v methylcellulose/water vehicle at 2 ml/kg, 60 minutes before test. Compound ENK6 was dosed with via the intraperitoneal (i.p.) route 60 minutes before the test or via the s.c. route 15 minutes before test. In both cases ENK6 was dissolved in saline.

[3] = tested on: Male CD rats; assay: Rat MEST model (seizure threshold, CC50); assay type: in vivo
Protocol: This work was conducted in compliance with the Home Office Guidance on the operation of the Animals (Scientific Procedures) Act 1986 and GlaxoSmithKline ethical standards. Male CD rats (100-145 g) were supplied by Charles River, UK. Animals were group housed (6 animal per cage) with free access to food (Standard rodent chow; Harlan, UK) and water under a 12 h light/dark cycle (lights on at 0700 h). A period of at least one week between arrival at GSK and the study was allowed in all cases.
Animals were administered a test compound at the appropriate dose, route and pre-treatment time and returned to their home cage. Testing occurred in a separate room from that used for housing. Testing involved determining the threshold for tonic hindlimb extensor seizures using a Hugo Sachs Electronik stimulator which delivers a constant current of 0.3 second duration, 50 Hz, sinewave form, fully adjustable between 1 and 300 mA. Stimuli were delivered via corneal electrodes (Stean T O, Atkins A R, Heidbreder C A, Quinn L P, Trail B K, Upton N. (2005) Br J. Pharmacol. 144(5):628-35). Seizure threshold was determined using the ‘up and down’ method of Kimball et al. (1957)(Kimball A W, Burnett W T Jr, Doherty D G. (1957) Radiat Res. 7(1):1-12). The first animal tested in each group was stimulated with a current that might be expected to be close to the threshold for induction of a seizure. If a tonic seizure was not induced, then next animal in the group received a stimulus 5 mA higher. If a tonic seizure was induced, then the next animal received a stimulus 5 mA lower. This is repeated for all animals within the control (vehicle) group. In the case of groups treated with a sodium channel blocker steps of 10 to 30 mA were used.
as §1
Induction of seizure is measured as an all-or-nothing effect scored as either present (+) or absent (0) for each animal. The data for each treatment group were recorded as the number of +'s and 0's at each current level employed and this information was then used to calculate the CC50 value (current required for 50% of animals to show seizure behaviour)+standard error of the mean according to the method of Kimball et al. (1957). Drug effects were calculated as the % change in CC50. Significant differences between drug-treated animals and appropriate vehicle treated groups were assessed according to the methods of Litchfield and Wilcoxon (1949). The statistical significance of differences between sodium channel blocker alone or in combination with ENK6 was assessed using a Student's t test.

[4] = ENK6 10 mg/kg s.c. + ENa7 1 mg/kg p.o., n = 2-3
[5] = ENK6 10 mg/kg s.c. + ENa7 3 mg/kg p.o., n = 2-3
[6] = ENK6 30 mg/kg s.c. + ENa7 1 mg/kg p.o., n = 2
[7] = ENK6 30 mg/kg s.c. + ENa7 3 mg/kg p.o., n = 2
[8] = sodium channel blocker 1 mg/kg s.c. in the presence of ENK6 (30 mg/kg i.p.)
[9] = sodium channel blocker 3 mg/kg s.c. in the presence of ENK6 (30 mg/kg i.p.)
[10] = sodium channel blocker alone, 1 mg/kg s.c., 30 minutes prior to test
[11] = sodium channel blocker alone, 3 mg/kg s.c., 30 minutes prior to test
[12] = ENK6 30 mg/kg i.p. + ENa13 1 mg/kg s.c., n = 2
[13] = ENK6 30 mg/kg i.p. + ENa13 3 mg/kg s.c., n = 2

For `COc1ccc(-n2nnnc2C(F)(F)F)cc1CN[C@H]1CCCN[C@H]1c1ccccc1.Cl.Cl` [ENK6, [2-Methoxy-5-(5-trifluoromethyl-tetrazol-1-yl)-benzyl]-([2S,3S]-2-phenyl-piperidin-3-yl)-amine dihydrochloride], the ED50 ([1]; Rattus norvegicus, po, compound alone, 0.1-3.0 mg/kg p.o. as printed, 1 hour post dose, range in brackets as printed, read-out: ED50, reversal of the FCA induced hypersensitivity) was 0.4 mg/kg, the “reversal of the FCA induced hypersensitivity” value ([1]; compound alone, 0.1-3.0 mg/kg, 1 hour post dose) was “dose related reversal” and the “ED20, reversal of the FCA induced hypersensitivity” value ([1]; compound alone, p.o. as printed, from the dose response curve) was 0.08 mg/kg. For the same compound, the “ED20, reversal of the FCA induced hypersensitivity” value ([1]; compound alone, s.c. (summary of results)) was “approx 0.08 mg/kg”, the “effect on the FCA induced hypersensitivity” value ([1]; each compound alone at its ED20 dose (ENa7 0.1 mg/kg p.o.; ENK6 0.08 mg/kg s.c.)) was “no significant effect” and the concentration at 15 min ([2]; blood, 10 mg/kg, ENK6 10 mg/kg s.c. + ENa7 veh, n = 2-3, read-out: Blood concentration) was 839 ng/mL. For the same compound, the concentration at 15 min ([2]; blood, 30 mg/kg, ENK6 30 mg/kg s.c. + ENa7 veh, n = 2, read-out: Blood concentration) was 1890 ng/mL, the concentration at 15 min ([2]; brain, 10 mg/kg, ENK6 10 mg/kg s.c. + ENa7 veh, n = 2-3, read-out: Brain concentration) was 1420 ng/g and the concentration at 15 min ([2]; brain, 30 mg/kg, ENK6 30 mg/kg s.c. + ENa7 veh, n = 2, read-out: Brain concentration) was 4500 ng/g. The Blood concentration [2, 4] was 635 ng/mL, the Brain concentration [2, 4] was 1254 ng/g and the Blood concentration [2, 5] was 732 ng/mL. For the same compound, the Brain concentration [2, 5] was 1504 ng/g, the Blood concentration [2, 6] was 1542 ng/mL and the Brain concentration [2, 6] was 3343 ng/g. The Blood concentration [2, 7] was 1481 ng/mL, the Brain concentration [2, 7] was 2484 ng/g and the “effect on seizure threshold” value ([3]; ENK6 alone, 10 mg/kg s.c., 15 minutes before testing (first experiment)) was “no effect on seizure threshold”. For the same compound, the “effect on seizure threshold” value ([3]; ENK6 alone, 30 mg/kg i.p., 60 minutes before the test) was “no effect on seizure threshold” and the “effect on seizure threshold” value ([3]; ENK6 alone, 30 mg/kg s.c., 15 minutes before testing) was “no effect on seizure threshold”.
In the case of `Cl.NC(=O)[C@@H]1CC[C@H](c2ccc(OCc3ccccc3F)cc2)N1` [ENa9, (5R)-5-(4-{[(2-fluorophenyl)methyl]oxy}phenyl)-L-prolinamide hydrochloride], the “change of blood or brain concentration of the sodium channel blocker in the presence of ENK6” value [2] is reported as “No increase”, the “increase in CC50 (mA)” value [3, 8] is reported as 133% and the “increase in CC50 (mA)” value [3, 9] is reported as 323%. For the same compound, the “effect on seizure threshold” value [3, 10] was “inactive” and the “effect on seizure threshold” value [3, 11] was “small, but significant increase in seizure threshold”.
With `CN1CC[C@]2(CC[C@H](c3ccc(OCc4ccccc4F)cc3)N2)C1=O.Cl` [ENa13, (2R,5R)-2-(4-{[(2-Fluorophenyl)methyl]oxy}phenyl)-7-methyl-1,7-diazaspiro[4.4]nonan-6-one hydrochloride] the concentration at 30 min ([2]; blood, 1 mg/kg, ENK6 veh + ENa13 1 mg/kg s.c., n = 2, read-out: Blood concentration) was 499 ng/mL, the concentration at 30 min ([2]; blood, 3 mg/kg, ENK6 veh + ENa13 3 mg/kg s.c., n = 2, read-out: Blood concentration) was 1820 ng/mL and the concentration at 30 min ([2]; brain, 1 mg/kg, ENK6 veh + ENa13 1 mg/kg s.c., n = 2, read-out: Brain concentration) was 478 ng/g. The concentration at 30 min ([2]; brain, 3 mg/kg, ENK6 veh + ENa13 3 mg/kg s.c., n = 2, read-out: Brain concentration) was 1820 ng/g, the “change of blood or brain concentration of the sodium channel blocker in the presence of ENK6” value [2] was “No increase” and the Blood concentration [2, 12] was 416 ng/mL. It also gave a Brain concentration [2, 12] of 508 ng/g, a Blood concentration [2, 13] of 1160 ng/mL and a Brain concentration [2, 13] of 1235 ng/g. The “increase in CC50 (mA)” value [3, 8] was 118%, the “increase in CC50 (mA)” value [3, 9] was 129% and the “effect on seizure threshold” value [3, 10] was “inactive”. For the same compound, the “effect on seizure threshold” value [3, 11] was “robust and significant increase in seizure threshold”.
In the case of `Nc1nc(N)c(-c2cccc(Cl)c2Cl)c(CF)n1` [ENa15, R(−)-2,4-diamino-5-(2,3-dichlorophenyl)-6-fluoromethyl pyrimidine methanesulphonate], the “increase in CC50 (mA)” value ([3]; sodium channel blocker 0.3 mg/kg p.o. in the presence of ENK6 30 mg/kg s.c.) is reported as 176%, the “increase in CC50 (mA)” value ([3]; sodium channel blocker 1 mg/kg p.o. in the presence of ENK6 30 mg/kg s.c.) is reported as 51% and the “effect on seizure threshold” value ([3]; sodium channel blocker alone, 0.3 mg/kg p.o., 60 minutes before the test) is reported as “no increase in seizure threshold”. For the same compound, the “increase in seizure threshold” value ([3]; sodium channel blocker alone, 1 mg/kg p.o., 60 minutes before the test) was 292%.
